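Results reflect a 48-hour exposure of cells in 96-well plates to compound at five concentrations. TGI: total growth inhibition.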
What was measured:
Experiment in all cases: growth of human tumour cells (NCI), 48 h
[1] = tested on: HOP-92 NSCLC
[2] = tested on: U251 CNS
[3] = tested on: K-562 leukemia
[4] = tested on: A498 renal
[5] = tested on: SK-MEL-5 melanoma
[6] = tested on: NCI-H226 lung
[7] = tested on: CAKI-1 renal
[8] = tested on: M14 melanoma
[9] = tested on: MOLT-4 leukemia
[10] = tested on: SNB-19 CNS
[11] = tested on: 786-0 renal
[12] = tested on: NCI-H522 lung
[13] = tested on: NCI-H460 lung
[14] = tested on: KM12 colon
[15] = tested on: HL-60(TB) leukemia
[16] = tested on: RXF 393 renal
[17] = tested on: MDA-MB-231 breast
[18] = tested on: HCT-116 colon
[19] = tested on: CCRF-CEM leukemia
[20] = tested on: OVCAR-5 ovarian
[21] = tested on: COLO 205 colon
[22] = tested on: MDA-N
[23] = tested on: IGROV1 ovarian
[24] = tested on: A549 NSCLC
[25] = tested on: MCF7 breast
[26] = tested on: UO-31 renal
[27] = tested on: EKVX NSCLC
[28] = tested on: TK-10 renal
[29] = tested on: SNB-75 CNS
[30] = tested on: PC-3 prostate
[31] = tested on: DU-145 prostate
[32] = tested on: HOP-62 NSCLC
[33] = tested on: LOX IMVI melanoma
[34] = tested on: SN12C renal
[35] = tested on: SF-268 CNS
[36] = tested on: SW-620 colon
[37] = tested on: HT29 colon
[38] = tested on: NCI/ADR-RES ovarian
[39] = tested on: OVCAR-3 ovarian
[40] = tested on: UACC-62 melanoma
[41] = tested on: NCI-H23 lung
[42] = tested on: HCT-15 colon
[43] = tested on: OVCAR-8 ovarian
[44] = tested on: MDA-MB-435
[45] = tested on: T-47D breast
[46] = tested on: HS 578T breast
[47] = tested on: UACC-257 melanoma
[48] = tested on: SK-MEL-28 melanoma
[49] = tested on: OVCAR-4 ovarian
[50] = tested on: SK-OV-3 ovarian
[51] = tested on: MALME-3M melanoma
[52] = tested on: SK-MEL-2 melanoma
[53] = tested on: ACHN renal
[54] = tested on: BT-549 breast
[55] = tested on: SF-295 CNS
[56] = tested on: RPMI-8226 leukemia
[57] = tested on: SR leukemia
[58] = tested on: SF-539 CNS

Measured: TGI

C1=C2C3=[N+](CCCC3)CC2Cc2ccsc21 (centres undefined)
not listed: [56] | [57] | [58]
> 100 µM: all other assays above

CC1=C2C3=C(C)C(=O)C(C)(C)CC[C@@]3(C)[C@]2(C)CCC(C)(C)C1=O
not listed: [1] | [13] | [48] | [52]
> 100 µM: all other assays above

— PubChem BioAssay (NCI)
